{"source": "paper PMC5222590", "about": "(Structure(London, England:1993), 2017)", "target": "T1, FusA (Streptococcus pneumoniae, UniProt A0A0H2URD6)", "T1 sequence (A0A0H2URD6 47-538)": "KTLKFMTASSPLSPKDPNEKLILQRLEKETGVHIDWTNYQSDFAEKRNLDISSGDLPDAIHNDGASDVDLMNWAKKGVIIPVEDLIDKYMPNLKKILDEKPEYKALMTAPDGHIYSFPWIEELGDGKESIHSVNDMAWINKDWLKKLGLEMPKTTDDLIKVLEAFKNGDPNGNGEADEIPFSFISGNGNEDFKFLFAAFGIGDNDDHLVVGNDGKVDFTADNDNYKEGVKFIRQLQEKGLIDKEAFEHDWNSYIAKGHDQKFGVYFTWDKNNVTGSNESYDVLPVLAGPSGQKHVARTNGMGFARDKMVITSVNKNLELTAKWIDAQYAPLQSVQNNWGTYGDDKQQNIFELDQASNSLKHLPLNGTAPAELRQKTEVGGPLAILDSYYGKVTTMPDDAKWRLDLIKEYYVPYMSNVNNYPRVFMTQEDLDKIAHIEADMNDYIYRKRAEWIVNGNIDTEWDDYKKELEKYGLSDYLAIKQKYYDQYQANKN", "assay": "ITC", "format": "binding", "details": "pH 7.4, 0.15 M NaCl, 25 °C; 1:1"}
{"smiles": "OC[C@H]1O[C@@](CO)(OC[C@@]2(OC[C@@]3(O[C@H]4O[C@H](CO)[C@@H](O)[C@H](O)[C@H]4O)O[C@H](CO)[C@@H](O)[C@@H]3O)O[C@H](CO)[C@@H](O)[C@@H]2O)[C@@H](O)[C@@H]1O", "note": "[GF3, nystose]", "values": [{"measurement": "KD", "value": "FusA had submicromolar affinity for fructofuranosyl-nystose and nystose"}]}
